Laboratory results taken from ChEMBL document CHEMBL5104211, “Design and synthesis of bile acid derivatives and their activity against colon cancer” (RSC Med Chem, 2022).
pIC50: −log10 of the molar value. Activity calls are given as the source filed them. No cut-off for these calls is given here.

Experiments:
[1] = system: SW480; assay: Anticancer activity against human SW480 cells assessed as inhibition of cell proliferation by MTT assay; type: functional, cell-based
[2] = system: RAW264.7; assay: Anti-inflammatory activity against mouse RAW264.7 cells assessed as inhibition of LPS-induced NO production at 25 micromol/L incubated for 24 hrs in presence of LPS by Griess reagent-based assay; type: functional; conditions: RAW264.7, 24 h, dose 25 µmol/L
[3] = system: RKO; assay: Anticancer activity against human RKO cells assessed as inhibition of cell proliferation by MTT assay; type: functional, cell-based
[4] = system: SK-HEP1; assay: Anticancer activity against human SK-HEP1 cells assessed as inhibition of cell proliferation by MTT assay; type: functional, cell-based
[5] = system: LoVo; assay: Anticancer activity against human LoVo cells assessed as inhibition of cell proliferation by MTT assay; type: functional, cell-based
[6] = system: HCT-116; assay: Anticancer activity against human HCT-116 cells assessed as inhibition of cell proliferation by MTT assay; type: functional, cell-based
[7] = system: MGC-803; assay: Anticancer activity against human MGC-803 cells assessed as inhibition of cell proliferation by MTT assay; type: functional, cell-based
[8] = system: RAW264.7; assay: Anti-inflammatory activity against mouse RAW264.7 cells assessed as downregulation of LPS-induced TNF-alpha level at 10 to 25 micromol/L incubated for 24 hrs in presence of LPS by ELISA; type: functional, cell-based; conditions: dose 10-25 µmol/L
[9] = system: A549; assay: Anticancer activity against human A549 cells assessed as inhibition of cell proliferation by MTT assay; type: functional, cell-based
[10] = system: RAW264.7; assay: Anti-inflammatory activity against mouse RAW264.7 cells assessed as inhibition of LPS-induced NO production incubated for 24 hrs in presence of LPS by Griess reagent-based assay; type: functional, cell-based; conditions: RAW264.7, 24 h
[11] = system: RAW264.7; assay: Anti-inflammatory activity against mouse RAW264.7 cells assessed as inhibition of LPS-induced NO production at 10 micromol/L incubated for 24 hrs in presence of LPS by Griess reagent-based assay; type: functional; conditions: RAW264.7, 24 h, dose 10 µmol/L
[12] = system: HT-29; assay: Anticancer activity against human HT-29 cells assessed as inhibition of cell proliferation by MTT assay; type: functional, cell-based
[13] = Cytotoxicity against human WI-38 cells assessed as inhibition of cell proliferation by MTT assay; type: toxicity, cell-based
[14] = system: Huh-7; assay: Anticancer activity against human Huh-7 cells assessed as inhibition of cell proliferation by MTT assay; type: functional, cell-based
[15] = system: HCT-116; assay: Induction of apoptosis in human HCT-116 cells assessed as retraction of the cytoplasm at 30 micromol/L incubated for 48 hrs by Giemsa staining based fluorescence microscopy; type: functional, cell-based; conditions: dose 30.0 µmol/L
[16] = system: HCT-116; assay: Inhibition of cell migration in human HCT-116 cells at 20 micromol/L and measured after 24 hrs by crystal violet staining based transwell assay; type: functional; conditions: HCT-116, 24 h, dose 20 µmol/L
[17] = system: HCT-116; assay: Anticancer activity against human HCT-116 cells assessed as decrease in size of colonies at 25 micromol/L and measured after 48 hrs by crystal violet dye based colony formation assay; type: functional, cell-based; conditions: dose 25.0 µmol/L
[18] = system: HCT-116; assay: Induction of apoptosis in human HCT-116 cells assessed as late apoptotic cells at 30 micromol/L incubated for 48 hrs by annexin V-FITC and propidium iodide staining based flow cytometry analysis (reference value: 7.13%); type: functional; conditions: dose 30 µmol/L, at 30 µM
[19] = system: HCT-116; assay: Induction of mitochondrial membrane potential loss in human HCT-116 cells and measured after 48 hrs by TRME staining based flow cytometric analysis (reference value: 97.52%); type: functional
[20] = system: HCT-116; assay: Induction of apoptosis in human HCT-116 cells assessed as unclear cell rupture edges at 30 micromol/L incubated for 48 hrs by Giemsa staining based fluorescence microscopy; type: functional; conditions: dose 30.0 µmol/L
[21] = system: HCT-116; assay: Induction of apoptosis in human HCT-116 cells assessed as retraction of the nucleus at 30 micromol/L incubated for 48 hrs by Giemsa staining based fluorescence microscopy; type: functional, cell-based; conditions: dose 30.0 µmol/L
[22] = system: HCT-116; assay: Induction of apoptosis in human HCT-116 cells assessed as early apoptotic cells at 30 micromol/L incubated for 48 hrs by annexin V-FITC and propidium iodide staining based flow cytometry analysis (reference value: 2.69%); type: functional; conditions: dose 30 µmol/L, at 30 µM
[23] = system: HCT-116; assay: Induction of apoptosis in human HCT-116 cells assessed as apoptotic body formation at 30 micromol/L incubated for 48 hrs by Giemsa staining based fluorescence microscopy; type: functional, cell-based; conditions: dose 30.0 µmol/L
[24] = system: HCT-116; assay: Anticancer activity against human HCT-116 cells assessed as inhibition of cell proliferation at 40 micromol/L incubated for 24 hrs by MTT assay; type: functional; conditions: HCT-116, 24 h, dose 40 µmol/L
[25] = system: HCT-116; assay: Anticancer activity against human HCT-116 cells assessed as inhibition of cell proliferation at 20 micromol/L incubated for 24 hrs by MTT assay; type: functional; conditions: HCT-116, 24 h, dose 20 µmol/L
[26] = system: HCT-116; assay: Induction of apoptosis in human HCT-116 cells assessed as viable cells at 30 micromol/L incubated for 48 hrs by annexin V-FITC and propidium iodide staining based flow cytometry analysis (reference value: 89.29%); type: functional; conditions: HCT-116, 48 h, dose 30 µmol/L, read-out: Activity
[27] = system: HCT-116; assay: Induction of apoptosis in human HCT-116 cells assessed as increase in number of apoptotic cells at 30 micromol/L incubated for 48 hrs by DAPI staining based fluorescence microscopy; type: functional, cell-based; conditions: dose 30.0 µmol/L
[28] = system: HCT-116; assay: […] activity in human HCT-116 cells assessed as downregulation of Bcl-2 level at 30 micromol/L incubated for 48 hrs by Western blot analysis; type: functional, cell-based; conditions: dose 30.0 µmol/L
[29] = system: HCT-116; assay: Anticancer activity against human HCT-116 cells assessed as decrease in number of colonies at 25 micromol/L and measured after 48 hrs by crystal violet dye based colony formation assay; type: functional, cell-based; conditions: dose 25.0 µmol/L
[30] = system: HCT-116; assay: Anticancer activity against human HCT-116 cells assessed as inhibition of cell proliferation at 5 to 50 micromol/L incubated for 24 hrs by MTT assay; type: functional, cell-based; conditions: dose 5-50 µmol/L, DDE = dose-dependent effect
[31] = system: HCT-116; assay: Anticancer activity in human HCT-116 cells assessed as downregulation of phosphorylated STAT3 level at 30 micromol/L incubated for 48 hrs by Western blot analysis; type: functional, cell-based; conditions: dose 30.0 µmol/L
[32] = system: HCT-116; assay: Induction of apoptosis in human HCT-116 cells assessed as contraction of cell volume at 30 micromol/L incubated for 48 hrs by Giemsa staining based fluorescence microscopy; type: functional; conditions: dose 30.0 µmol/L
[33] = system: HCT-116; assay: Induction of cell cycle arrest in human HCT-116 cells assessed as accumulation G2/M phase at 25 micromol/L and measured after 48 hrs by propidium iodide staining based flow cytometry analysis (Rvb= 11%); type: functional; conditions: dose 25 µmol/L, at 25 µM
[34] = system: HCT-116; assay: Induction of ROS generation in human HCT-116 cells assessed as increase in intracellular ROS level incubated for 48 hrs by DCFH-DA staining based flow cytometric analysis (Rvb=73.65%); type: functional
[35] = system: HCT-116; assay: Inhibition of cell invasion in human HCT-116 cells at 20 micromol/L and measured after 24 hrs by crystal violet staining based transwell assay; type: functional; conditions: HCT-116, 24 h, dose 20 µmol/L
[36] = system: HCT-116; assay: Induction of apoptosis in human HCT-116 cells assessed as necrotic cells at 30 micromol/L incubated for 48 hrs by annexin V-FITC and propidium iodide staining based flow cytometry analysis (reference value: 0.88%); type: functional; conditions: dose 30 µmol/L, at 30 µM
[37] = system: HCT-116; assay: Anticancer activity against human HCT-116 cells assessed as inhibition of cell proliferation at 20 to 40 micromol/L incubated for 24 to 72 hrs by MTT assay; type: functional, cell-based; conditions: dose 20-40 µmol/L, time 24-72 hrs, TDE = time-dependent effect

pIC50 [1] | pIC50 [4] | pIC50 [5] | pIC50 [6] | pIC50 [7] | pIC50 [9] | pIC50 [10] | pIC50 [12] | pIC50 [14] | SMILES | pIC50 [3] | pIC50 [13] | Activity [15] | inhibition at 20 µM [16] [%] | Activity [17] | Activity [18] [%] | Activity [19] [%] | Activity [20] | Activity [21] | Activity [22] [%] | Activity [23] | further results
4.16 | 3.81 | 4.25 | 4.19 | 4.09 | 3.90 | 4.79 | 4.39 | 3.94 | C[C@H](CCC(=O)OCc1cc(O)cc(O)c1)[C@H]1CC[C@H]2[C@@H]3[C@H](O)C[C@@H]4C[C@H](O)CC[C@]4(C)[C@H]3CC[C@]12C | 4.11 | < 3.70 | – | – | – | – | – | – | – | – | – | inhibition at 25 µM [2]: 73.2%; Activity ([8]; DDE = dose-dependent effect): Dde; inhibition at 10 µM [11]: 35.5%
4.50 | 4.14 | 4.61 | 4.66 | 4.66 | 4.34 | 4.69 | 4.46 | 4.20 | C[C@H](CCC(=O)OCc1ccc([N+](=O)[O-])cc1)[C@H]1CC[C@H]2[C@@H]3[C@H](O)C[C@@H]4C[C@H](O)CC[C@]4(C)[C@H]3C[C@H](O)[C@]12C | 4.53 | < 3.30 | Active | 80 | Active | 84.27 | 58.32 | Active | Active | 0.93 | Active | inhibition at 40 µM [24]: 90%; inhibition at 20 µM [25]: < 40%; viability at 30 µM [26]: 13.8%; Activity [8]: Active; Activity [27]: Active; Activity [28]: Active; Activity [29]: Active; inhibition [30]: Dde; Activity [31]: Active; Activity [32]: Active; Activity [33]: 93.18%; Activity [34]: 97.06%; inhibition at 20 µM [35]: 80%; Activity [36]: 0.96%; inhibition [37]: Tde
4.55 | 4.30 | 4.64 | 4.63 | 4.58 | 4.46 | 4.69 | 4.55 | 3.90 | COc1cc(COC(=O)CC[C@@H](C)[C@H]2CC[C@H]3[C@@H]4[C@H](O)C[C@@H]5C[C@H](O)CC[C@]5(C)[C@H]4C[C@H](O)[C@]23C)cc(OC)c1 | 4.50 | < 3.30 | Active | 80 | Active | 76.88 | 70.35 | Active | Active | 2.01 | Active | inhibition at 40 µM [24]: 90%; inhibition at 20 µM [25]: < 40%; viability at 30 µM [26]: 19.5%; Activity [8]: Active; Activity [27]: Active; Activity [28]: Active; Activity [29]: Active; inhibition [30]: Dde; Activity [31]: Active; Activity [32]: Active; Activity [33]: 89.77%; Activity [34]: 93.87%; inhibition at 20 µM [35]: 80%; Activity [36]: 1.65%; inhibition [37]: Tde
